Data reported in patent US20260365699A1, “Compound Production Method” (The University of Tokyo, priority 2022, published 2026).
*1 amine or outer side, *2 acyl side, *3 side chain or, on linkers, in order; H or OH if unused. Where a SMILES comes first, the peptide text is derived from it. Bridges are numbered along the chain shown (N, C = ends). [ ]: non-standard residue; d: D form. The star is where a group is joined. X2 = C=C(N[*:2])c1nc(-c2nc(-c3nc(C(=O)NCCC(=O)NCCOCCOCCCCCCCl)cs3)ccc2C(=O)[*:1])cs1; X1 = C=C(N[*:2])c1nc(-c2nc(-c3nc(C(=O)OC)cs3)ccc2C(=O)[*:1])cs1; Nle = CCCC[C@H](N)C(=O)O; Dhb = C/C=C(\N)C(=O)O; Dha = C=C(N)C(=O)O; Cam = NC(=O)C*

Experiments:
[1] = system: NF-kB signaling pathway in THP-1 cells; experiment: Inhibition of NFkB reporter gene activity in THP1-XBlue stable cell line; type: cell-based, human
From the text: (§1) FIG. 11(a) illustrates TL12 which is a lactazole-like binder of TLR10, retrosynthesis thereof, and amino acid building blocks used. FIG. 11(b) illustrates a binding affinity (KD value) to IRAK4 and an inhibition (IC50) by the synthesized thiopeptide. The half-life (τ1/2) in the human serum and the inhibition (IC50) of the NF-kB signaling pathway in THP-1 cells are also shown. These values were obtained by non-linear regression of the experimental data.: The shaded C in IR4 is hGln (which is a product of IAA alkylation of Cys, but is replaced by homoglutamine); the shaded M in IR15 is Nle (in which Met is replaced by Nle); and the shaded T in IR15 represents a Dhb residue. […] FIG. 11(c) illustrates the binding affinity (KD value) to TLR10 and the half-life (τ1/2) in the human serum.: The shaded C in TL1, TL8, and TL16 is hGln (a product of IAA alkylation of Cys, but is replaced by homoglutamine); the shaded M in TL8, TL11, TL12, TL13, and TL18 is Nle (in which Met is replaced by Nle); the shaded S in 8S of TL11 and TL12 represents a Dha residue; and the shaded S in 9S of TL12 represents an oxazole. […] FIG. 11(d) illustrates the results of a CAPA assay of IR1, IR15, and TP8. The assay was carried out in HEK293T cells.
(§2) Finally, the cell activity of the thiopeptide against IRAK4, which is an intracellular target protein localized in the cytoplasm and the cell nucleus, was examined. […]

HEK293T cells = experiment: Chloroalkane penetration assay (CAPA) in HEK293T cells; type: cell-based, human; settings: compared with Tat
From the text: as §1, §2

TNIK mRNA = TNIK mRNA level in HCT116 cells (RT-qPCR); type: cell-based, human
Experimental: (§3) The sub-confluent HCT116 cells were treated with the indicated compounds for 24 hours and the cellular levels of TNIK, TNIK pSer764 (autophosphorylation product), c-Myc, and Axin2 were analyzed by an immunoblotting method (FIG. 7(b)) and RT-qPCR (FIG. 7(c)).

TNIK [2] = experiment: TNIK protein level in HCT116 cells (immunoblotting); type: cell-based, human
Experimental: as §3

TNIK pSer764 = experiment: Immunoblotting of TNIK pSer764 (TNIK autophosphorylation) in HCT116 cells; type: cell-based, human; settings: 20 μM of TP15, 24 hours, immunoblotting
Experimental: as §3
Nat. Commun. 2016, 7, 12586).

HEK293H cells = experiment: Chloroalkane penetration assay (CAPA) in HEK293H cells; type: cell-based, human; settings: chloroalkane-labeled derivatives
Experimental: as §3
Next, it was confirmed whether or not the obtained compound could also access an intracellular target protein (TNIK is localized in the cytoplasm and the cell nucleus) in a human cell model. First, a chloroalkane penetration assay (CAPA) was performed on 4 types (TP1-ct, TP8-ct, TP14-ct, and TP15-ct) out of the 6 types of chloroalkane-labeled thiopeptide derivatives shown in FIG. 5 in order to measure an uptake degree into the cytoplasm (Peraro, L.; Deprey, K. L.; Moser, M. K.; Zou, Z.; Ball, H. L.; Levine, B.; and Kritzer, J. A. Cell Penetration Profiling Using the Chloroalkane Penetration Assay. J. Am. Chem. Soc. 2018, 140, 11360-11369).

[3] = Stability / reactivity towards glutathione (GSH), LC/MS; type: physicochemical; settings: for reactivity with GSH, in words: increasing concentration of glutathione (GSH)
TNIK [4] = target: TNIK (Homo sapiens, UniProt Q9UKE5); experiment: Surface plasmon resonance (SPR) binding affinity to TNIK; settings: saturated concentration of ATP (1 mM; 15-fold higher than KM)
Chain of TNIK (Homo sapiens, UniProt Q9UKE5) (Q9UKE5 whole entry): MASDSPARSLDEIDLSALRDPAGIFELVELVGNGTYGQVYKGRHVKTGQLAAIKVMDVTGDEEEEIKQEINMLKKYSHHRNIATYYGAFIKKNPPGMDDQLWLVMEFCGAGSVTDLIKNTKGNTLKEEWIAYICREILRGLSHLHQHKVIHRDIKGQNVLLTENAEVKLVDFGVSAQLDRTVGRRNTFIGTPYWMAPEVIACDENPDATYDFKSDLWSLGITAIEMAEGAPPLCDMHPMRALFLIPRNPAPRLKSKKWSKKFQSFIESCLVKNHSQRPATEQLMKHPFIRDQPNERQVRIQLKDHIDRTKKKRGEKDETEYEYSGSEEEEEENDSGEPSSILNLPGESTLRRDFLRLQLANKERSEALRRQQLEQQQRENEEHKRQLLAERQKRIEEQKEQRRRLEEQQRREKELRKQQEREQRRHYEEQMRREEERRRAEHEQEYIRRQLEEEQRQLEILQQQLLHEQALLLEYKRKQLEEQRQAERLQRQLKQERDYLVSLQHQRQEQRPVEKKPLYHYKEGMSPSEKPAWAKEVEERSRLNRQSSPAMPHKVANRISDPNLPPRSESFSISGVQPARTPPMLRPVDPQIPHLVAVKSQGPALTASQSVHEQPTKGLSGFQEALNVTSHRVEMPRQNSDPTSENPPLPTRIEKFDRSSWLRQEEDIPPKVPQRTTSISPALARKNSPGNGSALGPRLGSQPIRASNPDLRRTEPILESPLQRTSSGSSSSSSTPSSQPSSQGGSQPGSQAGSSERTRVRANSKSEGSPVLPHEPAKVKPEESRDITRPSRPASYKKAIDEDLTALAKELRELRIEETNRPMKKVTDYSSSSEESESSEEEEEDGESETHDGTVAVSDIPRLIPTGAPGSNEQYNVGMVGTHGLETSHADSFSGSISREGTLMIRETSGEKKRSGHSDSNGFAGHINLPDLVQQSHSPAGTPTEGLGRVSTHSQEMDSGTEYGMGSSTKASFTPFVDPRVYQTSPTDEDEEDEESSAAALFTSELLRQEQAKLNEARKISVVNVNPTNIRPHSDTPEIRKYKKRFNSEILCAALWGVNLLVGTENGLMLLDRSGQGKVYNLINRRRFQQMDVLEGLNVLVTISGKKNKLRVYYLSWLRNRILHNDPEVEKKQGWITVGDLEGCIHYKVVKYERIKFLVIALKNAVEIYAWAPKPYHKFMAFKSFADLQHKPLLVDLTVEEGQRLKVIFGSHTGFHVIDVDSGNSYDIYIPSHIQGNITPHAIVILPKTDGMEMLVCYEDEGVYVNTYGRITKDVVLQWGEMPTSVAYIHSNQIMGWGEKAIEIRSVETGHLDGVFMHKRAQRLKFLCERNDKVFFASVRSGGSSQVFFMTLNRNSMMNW
From the text: Surface plasmon resonance (SPR) was used to evaluate the binding affinity of the thiopeptide synthesized in Example 2 to TNIK.

[5] = Metabolic stability in human serum (LC/MS); type: in vitro ADME; settings: 37 °C
Experimental: The compounds were incubated with a human serum at 37 °C, and the amount of the residual test substance at various points in time was quantified by LC/MS with respect to an internal standard substance. […] Next, it was examined whether or not the half-lives of the compounds were affected by the reactivity of the Dha residue. The Dha residue may be conjugated with various serum thiols.
In addition, the metabolic stability of all of the 14 types of candidate thiopeptides was examined. The compound was incubated with the human serum at 37 °C, and the amount of the residual thiopeptide at various points in time was quantified by LC/MS with respect to the internal standard substance. The half-life of the thiopeptide for TLR10 was generally as long as 38.2 hours, and the thiopeptide was stable.

C=C1NC(=O)[C@H](CCCCN)NC(=O)[C@H](Cc2ccc(O)cc2)NC(=O)[C@H]([C@@H](C)CC)NC(=O)[C@H](CCCNC(=N)N)NC(=O)[C@H](CCCNC(=N)N)NC(=O)[C@H](CCCCN)NC(=O)[C@H](Cc2ccccc2)NC(=O)[C@H](CC(C)C)NC(=O)[C@H](CCSC)NC(=O)[C@H](CO)NC(=O)[C@H](Cc2c[nH]c3ccccc23)NC(=O)c2ccc(-c3nc(C(=O)NCCC(=O)NCCOCCOCCCCCCCl)cs3)nc2-c2csc1n2 [IR1-ct] (WSMLFKRRIYK; linker N-C via X2)
inhibition of NFkB reporter gene activity, in words [1]: significant inhibition

C=C1NC(=O)/C(=C/C)NC(=O)[C@H](Cc2c[nH]c3ccccc23)NC(=O)[C@H](Cc2c[nH]cn2)NC(=O)[C@H](Cc2c[nH]c3ccccc23)NC(=O)[C@H]([C@@H](C)O)NC(=O)[C@H]([C@@H](C)CC)NC(=O)[C@H](Cc2ccccc2)NC(=O)[C@H](CCC(N)=O)NC(=O)[C@H](CCCNC(=N)N)NC(=O)[C@H](CCCCN)NC(=O)[C@H](CCCC)NC(=O)[C@H](CO)NC(=O)[C@H](Cc2c[nH]c3ccccc23)NC(=O)c2ccc(-c3nc(C(=O)NCCC(=O)NCCOCCOCCCCCCCl)cs3)nc2-c2csc1n2 [IR15-ct] (WS[Nle]KRQFITWHW[Dhb]; linker N-C via X2)
inhibition of NFkB reporter gene activity, in words [1]: significant inhibition

C=C1NC(=O)/C(=C/C)NC(=O)[C@H](Cc2c[nH]c3ccccc23)NC(=O)[C@H](Cc2c[nH]cn2)NC(=O)[C@H](Cc2c[nH]c3ccccc23)NC(=O)[C@H]([C@@H](C)O)NC(=O)[C@H]([C@@H](C)CC)NC(=O)[C@H](Cc2ccccc2)NC(=O)[C@H](CCC(N)=O)NC(=O)[C@H](CCCNC(=N)N)NC(=O)[C@H](CCCCN)NC(=O)[C@H](CCCC)NC(=O)[C@H](CO)NC(=O)[C@H](Cc2c[nH]c3ccccc23)NC(=O)c2ccc(-c3nc(C(=O)OC)cs3)nc2-c2csc1n2 [IR15] (WS[Nle]KRQFITWHW[Dhb]; linker N-C via X1)
uptake into cytoplasm of HEK293T cells, in words (HEK293T cells): taken up into the cytoplasm of HEK293T cells much more efficiently than Tat
uptake into HEK293T cells relative to Tat (HEK293T cells; in the presence of serum): 2 fold

OC1CCC(Oc2cccc3cnc(Nc4ccc5nc[nH]c5c4)nc23)CC1 (centres unmarked) [NCB0846, reference compound]
overall expression of TNIK, mRNA level (TNIK mRNA): down-regulated
overall expression of TNIK, protein level (TNIK [2]): down-regulated
level of TNIK pSer764 (TNIK pSer764): the same

C=C1NC(=O)C(=C)NC(=O)[C@H](CCCCN)NC(=O)[C@H](CC(C)C)NC(=O)[C@H]([C@@H](C)O)NC(=O)[C@H](CCCCN)NC(=O)[C@H](Cc2ccc(O)cc2)NC(=O)[C@H]([C@@H](C)CC)NC(=O)[C@H](Cc2ccccc2)NC(=O)CNC(=O)[C@H](Cc2c[nH]c3ccccc23)NC(=O)c2ccc(-c3nc(C(=O)NCCC(=O)NCCOCCOCCCCCCCl)cs3)nc2-c2csc(n2)C(=C)NC(=O)CNC1=O [TP1-ct] (WGFIYKTLK[Dha][Dha]G; linker N-C via X2)
cytoplasmic uptake (CAPA), in words (HEK293H cells): taken up into HEK293H cells at a concentration of a single-digit μM

C=C1NC(=O)C(=C)NC(=O)[C@H](CCCCN)NC(=O)[C@H](CC(C)C)NC(=O)[C@H]([C@@H](C)O)NC(=O)[C@H](CCCCN)NC(=O)[C@H](Cc2ccc(O)cc2)NC(=O)[C@H]([C@@H](C)CC)NC(=O)[C@H](Cc2ccccc2)NC(=O)CNC(=O)[C@H](Cc2c[nH]c3ccccc23)NC(=O)c2ccc(-c3nc(C(=O)OC)cs3)nc2-c2csc(n2)C(=C)NC(=O)CNC1=O [TP1] (WGFIYKTLK[Dha][Dha]G; linker N-C via X1)
reactivity with GSH, in words [3]: Dha11 and Dha12 in TP1 react with GSH
cytoplasmic uptake (CAPA), in words (HEK293H cells): efficient cytoplasmic translocation
binding to TNIK in the presence of ATP (TNIK [4]): bonded to TNIK in the presence of the saturated concentration of ATP

C=C1NC(=O)[C@H](CO)NC(=O)[C@H](CSCC(N)=O)NC(=O)CNC(=O)[C@H](Cc2ccc(O)cc2)NC(=O)[C@H](C)NC(=O)[C@H](CO)NC(=O)[C@H](CC(=O)O)NC(=O)CNC(=O)[C@H](CC(C)C)NC(=O)[C@H](Cc2c[nH]c3ccccc23)NC(=O)[C@H](Cc2c[nH]c3ccccc23)NC(=O)c2ccc(-c3nc(C(=O)OC)cs3)nc2-c2csc1n2 [TP4] (WWLGDSAYGC(Cam)S; linker N-C via X1)
half-life (τ1/2) in human serum [5]: 88 h
stability in human serum, in words [5]: good stability

C=C1NC(=O)CNC(=O)[C@H](CC(N)=O)NC(=O)[C@H](CC(C)C)NC(=O)CNC(=O)[C@H](CCCCN)NC(=O)[C@H](C)NC(=O)[C@H]([C@@H](C)CC)NC(=O)[C@H](CO)NC(=O)[C@H](Cc2c[nH]c3ccccc23)NC(=O)[C@H](C)NC(=O)[C@H](Cc2c[nH]c3ccccc23)NC(=O)c2ccc(-c3nc(C(=O)OC)cs3)nc2-c2csc1n2 [TP8] (WAWSIAKGLNG; linker N-C via X1)
half-life (τ1/2) in human serum [5]: 14 h
stability in human serum, in words [5]: good stability
binding to TNIK in the presence of ATP (TNIK [4]): bonded to TNIK in the presence of the saturated concentration of ATP

C=C1NC(=O)CNC(=O)[C@H](CCCNC(=N)N)NC(=O)[C@H](Cc2ccc(O)cc2)NC(=O)[C@H](CC(C)C)NC(=O)[C@H](CO)NC(=O)[C@H](CCCCN)NC(=O)[C@H](CC(N)=O)NC(=O)CNC(=O)[C@H](Cc2ccccc2)NC(=O)[C@H](Cc2c[nH]c3ccccc23)NC(=O)[C@H](Cc2c[nH]c3ccccc23)NC(=O)c2ccc(-c3nc(C(=O)NCCC(=O)NCCOCCOCCCCCCCl)cs3)nc2-c2csc1n2 [TP14-ct] (WWFGNKSLYRG; linker N-C via X2)
cytoplasmic uptake (CAPA), in words (HEK293H cells): taken up into HEK293H cells at a concentration of a single-digit μM

C=C1NC(=O)CNC(=O)[C@H](CCCNC(=N)N)NC(=O)[C@H](Cc2ccc(O)cc2)NC(=O)[C@H](CC(C)C)NC(=O)[C@H](CO)NC(=O)[C@H](CCCCN)NC(=O)[C@H](CC(N)=O)NC(=O)CNC(=O)[C@H](Cc2ccccc2)NC(=O)[C@H](Cc2c[nH]c3ccccc23)NC(=O)[C@H](Cc2c[nH]c3ccccc23)NC(=O)c2ccc(-c3nc(C(=O)OC)cs3)nc2-c2csc1n2 [TP14] (WWFGNKSLYRG; linker N-C via X1)
residual amount in the presence of GSH ([3]; 10 mM GSH, after 24 hours): > 95%
reactivity with GSH, in words [3]: stable
stability in human serum, in words [5]: short half-life
cytoplasmic uptake (CAPA), in words (HEK293H cells): efficient cytoplasmic translocation
binding to TNIK in the presence of ATP (TNIK [4]): bonded to TNIK in the presence of the saturated concentration of ATP

C=C1NC(=O)c2csc(n2)[C@H]([C@@H](C)O)NC(=O)[C@H](C)NC(=O)[C@H]([C@@H](C)CC)NC(=O)[C@H](CCCNC(=N)N)NC(=O)CNC(=O)[C@H](CCCNC(=N)N)NC(=O)[C@H]([C@@H](C)O)NC(=O)[C@H](CCCNC(=N)N)NC(=O)[C@H]([C@@H](C)CC)NC(=O)[C@H]([C@@H](C)O)NC(=O)[C@H](Cc2c[nH]c3ccccc23)NC(=O)c2ccc(-c3nc(C(=O)NCCC(=O)NCCOCCOCCCCCCCl)cs3)nc2-c2csc1n2 [TP15-ct]
cytoplasmic uptake (CAPA), in words (HEK293H cells): taken up into HEK293H cells at a concentration of a single-digit μM
